Data on 17 compounds can be found in US9050346B2, “Bromodomain inhibitors” (AbbVie Inc., priority 2013, dated 2015).

Data set [1] deals with breast cancer cell line MX-1. Nature of the data set: MX-1 cell line proliferation assay (3-day, Cell Titer Glo). In kind it is cell-based. To be noted: Homo sapiens, MX1, MX-1 cells, 72 h, top concentration 3 μM, read-out: Cellular proliferation: EC50. In a few lines: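 MX-1 cells, 5000/well in RPMI 1640 with 10% FBS, adhered overnight, then treated 3 days with compound at final 3 to 0.0001 μM (3-fold steps). Cell Titer Glo luminescence normalized to DMSO-treated cells; EC50 from sigmoidal fit.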

Data set [2] addresses T1, BRD4 (BDI_K57-E168) (Homo sapiens, UniProt O60885).
T1 construct: BD1: amino acids K57-E168; made in house
Put plainly: TR-FRET bromodomain binding assay, BRD4 first bromodomain. To be noted: His-tagged BD1, 100 nM Alexa647 probe; Ki calculated from IC50; dilution protocol A-G. In a few lines: (§1)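 His-tagged BRD4 BD1 (K57-E168) or BD2 (8 nM) with Eu-anti-His antibody and Alexa647-labeled BET-inhibitor probe (100 nM for BDI, 30 nM for BDII), pH 6.0 phosphate buffer, 2% DMSO, 1 h at room temperature. TR-FRET (Ex 340, Em 495/520); IC50 by 4-parameter fit, converted to Ki using probe Kd and concentration.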

Data set [3] deals with T2, BRD4 (BDII_E352-M457) (Homo sapiens, UniProt O60885).
T2 construct: made in house
Put plainly: TR-FRET bromodomain binding assay, BRD4 second bromodomain. In a few lines:
as §1

Data set [4] relates to OPM-2 human multiple myeloma xenograft tumors. Put plainly: OPM-2 xenograft tumor growth inhibition assay. In kind it is in vivo, mice. To be noted: QDx21; for % TGI: SCID-beige mice; for % TGD (tumor growth delay): endpoint 1000 mm^3. On the procedure:
The effect of compounds of the examples to inhibit the growth of OPM-2 xenograft tumors implanted in mice was evaluated. A suspension of cancer cells (5×10^6 per 0.1 mL) prepared in RPMI culture medium (Invitrogen, Carlsbad, Calif.) was diluted 1:1 with a solution of Matrigel™ (BD Biosciences, Franklin Lakes, N.J.) and inoculated subcutaneously into the right hind flank of female SCID-beige (Charles River Labs) mice. Randomization into treatment and vehicle control groups (10/group) occurred when the mean tumor volume reached approximately 250 mm^3. Compounds were formulated in 2.5% DMSO, 10% EtOH, 27.5% PEG 400, 60% Phosol 53 MCT. Administration of compound or vehicle was initiated on the day following randomization and continued for 21 days. Tumors were measured twice a week throughout the treatment period using a pair of calipers and tumor volumes were calculated according to the formula V=L×W^2/2 (V: volume, mm^3; L: length, mm. W: width, mm) Tumor growth inhibition was calculated based on the mean tumor volume measured on the first day that the mean volume of the vehicle group exceeded 2000 mm^3 according to the formula % TGI=100-mean tumor volume of treatment group/mean tumor volume of control group x 100.

Marks after values point to notes of the source that are not given here.

In the case of `Cc1[nH]c(-c2cc(S(C)(=O)=O)ccc2Oc2ccc(F)cc2F)c2c1C(=O)NCC2` [Example 98, 1-[2-(2,4-difluorophenoxy)-5-(methylsulfonyl)phenyl]-3-methyl-2,5,6,7-tetrahydro-4H-pyrrolo[3,4-c]pyridin-4-one], in data set [1], the EC50 is 721 nM. Further, in data set [2], the Ki was 34.9 nM. For the same compound, the Ki in data set [3] came to 148 nM. Further, in data set [4] (45 mg/kg PO), the “% removed from study (morbidity or weight loss in excess of 20%)” value was found to be 0%, the “% TGI” value is 45** % and the “% TGD (tumor growth delay)” value is 53** %. Moreover, in data set [4] (150 mg/kg PO), the “% removed from study (morbidity or weight loss in excess of 20%)” value worked out at 20%, the “% TGI” value was 68*** % and the “% TGD (tumor growth delay)” value is 123** %.
For `CCS(=O)(=O)Nc1ccc(Oc2ccccc2)c(-c2[nH]c(C)c3c(=O)[nH]c(C(=O)OC)cc23)c1` [Example 7, methyl 1-(5-(ethylsulfonamido)-2-phenoxyphenyl)-3-methyl-4-oxo-4,5-dihydro-2H-pyrrolo[3,4-c]pyridine-6-carboxylate], the EC50 in data set [1] was found to be 25.7 nM. Besides, the figures for the Ki in data set [2] and in data set [3] were 2.15 nM and 15.9 nM, respectively.
With `Cc1[nH]c(-c2ccccc2Oc2ccccc2)c2cc(C(=O)NCCN3CCOCC3)[nH]c(=O)c12` [Example 27, 3-methyl-N-(2-morpholinoethyl)-4-oxo-1-(2-phenoxyphenyl)-4,5-dihydro-2H-pyrrolo[3,4-c]pyridine-6-carboxamide], the EC50 in data set [1] is 98.9 nM. The Ki is 3.81 nM in data set [2] and 47 nM in data set [3].
The matching figures for `COC(=O)C1Cc2c(-c3ccccc3Oc3ccccc3)[nH]c(C)c2C(=O)N1` (stereo not drawn) [Example 97, methyl 3-methyl-4-oxo-1-(2-phenoxyphenyl)-4,5,6,7-tetrahydro-2H-pyrrolo[3,4-c]pyridine-6-carboxylate]: above 3000 nM, 24.3 nM and 157 nM.
On the same counts, the results for `Cc1[nH]c(-c2ccccc2Oc2ccccc2)c2nc[nH]c(=O)c12` [Example 85, 5-methyl-7-(2-phenoxyphenyl)-3,6-dihydro-4H-pyrrolo[3,4-d]pyrimidin-4-one] are 1240 nM, 92.4 nM and 720 nM.
Take `Cc1[nH]c(-c2cc(N)ccc2Oc2ccccc2)c2cn[nH]c(=O)c12` [Example 74, 5-(5-amino-2-phenoxyphenyl)-7-methyl-2,6-dihydro-1H-pyrrolo[3,4-d]pyridazin-1-one]: the EC50 in data set [1] was determined as 78 nM. The Ki in data set [2] was 1.88 nM; in data set [3] it was 18.6 nM.
The matching figures for `Cc1[nH]c(-c2cc(NS(C)(=O)=O)ccc2Oc2ccc(F)cc2F)c2cn[nH]c(=O)c12` [Example 80, N-[4-(2,4-difluorophenoxy)-3-(7-methyl-1-oxo-2,6-dihydro-1H-pyrrolo[3,4-d]pyridazin-5-yl)phenyl]methanesulfonamide]: 92.2 nM, 3.26 nM and 24.4 nM.
The matching figures for `COC(=O)c1cc2c(-c3cc(NS(C)(=O)=O)ccc3Oc3ccccc3)[nH]c(C)c2c(=O)[nH]1` [Example 3, methyl 3-methyl-1-(5-(methylsulfonamido)-2-phenoxyphenyl)-4-oxo-4,5-dihydro-2H-pyrrolo[3,4-c]pyridine-6-carboxylate]: 41.5 nM, 3.33 nM and 19.8 nM.
On the same counts, the results for `CNC(=O)c1cc2c(-c3cc(C(F)(F)F)ccc3Oc3ccc(F)cc3F)[nH]c(C)c2c(=O)[nH]1` [Example 34, 1-[2-(2,4-difluorophenoxy)-5-(trifluoromethyl)phenyl]-N,3-dimethyl-4-oxo-4,5-dihydro-2H-pyrrolo[3,4-c]pyridine-6-carboxamide] are 355 nM, 77 nM and 160 nM.
Regarding `Cc1[nH]c(-c2cc(N)ccc2Oc2ccc(F)cc2F)c2cn[nH]c(=O)c12` [Example 78, 5-[5-amino-2-(2,4-difluorophenoxy)phenyl]-7-methyl-2,6-dihydro-1H-pyrrolo[3,4-d]pyridazin-1-one], the EC50 in data set [1] turned out to be 60.5 nM. The Ki is 3.31 nM in data set [2] and 34.1 nM in data set [3].
On the same counts, the results for `CCOC(=O)c1cc2c(-c3cc(CS(C)(=O)=O)ccc3Oc3ccc(F)cc3F)[nH]c(C)c2c(=O)[nH]1` [Example 68, ethyl 1-{2-(2,4-difluorophenoxy)-5-[(methylsulfonyl)methyl]phenyl}-3-methyl-4-oxo-4,5-dihydro-2H-pyrrolo[3,4-c]pyridine-6-carboxylate] are 30 nM, 2.12 nM and 8.8 nM.
On to `Cc1[nH]c(-c2ccccc2Oc2ccccc2)c2cc(C(=O)N3CCC(O)CC3)[nH]c(=O)c12` [Example 30, 6-(4-hydroxypiperidine-1-carbonyl)-3-methyl-1-(2-phenoxyphenyl)-2H-pyrrolo[3,4-c]pyridin-4(5H)-one], for which, in data set [1], the EC50 was found to be 1350 nM. Moreover, the Ki in data set [2] was 92.6 nM; in data set [3] it was 48.8 nM.
Regarding `CCOC(=O)c1cc2c(-c3cc(NS(C)(=O)=O)ccc3Oc3ccc(F)cc3F)[nH]c(C)c2c(=O)[nH]1` [Example 9, ethyl 1-{2-(2,4-difluorophenoxy)-5-[(methylsulfonyl)amino]phenyl}-3-methyl-4-oxo-4,5-dihydro-2H-pyrrolo[3,4-c]pyridine-6-carboxylate], the EC50 in data set [1] was determined as 71.6 nM. Further, the Ki was 3.41 nM in data set [2] and 29.3 nM in data set [3].
Regarding `Cc1[nH]c(-c2ccccc2Oc2ccccc2)c2cc(C(=O)Nc3ccc(CN4CCN(C)CC4)cc3)[nH]c(=O)c12` [Example 17, 3-methyl-N-(4-((4-methylpiperazin-1-yl)methyl)phenyl)-4-oxo-1-(2-phenoxyphenyl)-4,5-dihydro-2H-pyrrolo[3,4-c]pyridine-6-carboxamide], in data set [1], the EC50 is 177 nM. In addition, the Ki in data set [2] is 27.7 nM; in data set [3] it was 2.29 nM.
With `Cc1[nH]c(-c2ccccc2Oc2ccccc2)c2cc(C(=O)NCCN3CCCC3)[nH]c(=O)c12` [Example 25, 3-methyl-4-oxo-1-(2-phenoxyphenyl)-N-[2-(pyrrolidin-1-yl)ethyl]-4,5-dihydro-2H-pyrrolo[3,4-c]pyridine-6-carboxamide], the EC50 in data set [1] came out at 163 nM. Also, the Ki in data set [2] is 3.12 nM; in data set [3], 92.3 nM.
In the case of `CCOC(=O)c1cc2c(-c3cc(NS(C)(=O)=O)ccc3Oc3ccccc3)[nH]c(C)c2c(=O)[nH]1` [Example 5, ethyl 3-methyl-1-(5-(methylsulfonamido)-2-phenoxyphenyl)-4-oxo-4,5-dihydro-2H-pyrrolo[3,4-c]pyridine-6-carboxylate], in data set [1], the EC50 was found to be 47.3 nM. In addition, the Ki in data set [2] was 1.44 nM; in data set [3], 9.51 nM.
The matching figures for `Cc1[nH]c(-c2cc(NS(=O)(=O)CC(F)(F)F)ccc2Oc2ccccc2)c2cn[nH]c(=O)c12` [Example 76, 2,2,2-trifluoro-N-[3-(7-methyl-1-oxo-2,6-dihydro-1H-pyrrolo[3,4-d]pyridazin-5-yl)-4-phenoxyphenyl]ethanesulfonamide]: 410 nM, 5.82 nM and 16.2 nM.
